# Earlier results in publication PMC11071064 (Nuclear medicine and biology, 2022).
# Experiments:
# RIPK1 [1] = conditions: read-out: IC50 for binding toward RIPK1
# [2] = pH 7.4
# RIPK1 [3] = conditions: read-out: EC50 (potency)
# [4] = not given; remark: listed apart in the source
SMILES,IC50 (RIPK1 [1]),log D,solubility [2],EC50 (RIPK1 [3]),metabolic stability t1/2 [4]
CN1C(=O)[C@@H](NC(=O)c2n[nH]c(Cc3ccccc3)n2)COc2ccccc21 [Compound 4],1 nM,3.8,~ 450 μM,,
CN1C(=O)NC(Cc2c[nH]c3c(Cl)cccc23)C1=O (stereo not shown) [Nec-1s],,,,210 nM,< 5 min
CN1C(=O)C(Cc2c[nH]c3ccccc23)NC1=S (stereo not shown) [Nec-1],,,,490 nM,< 5 min
